Read-outs that look alike come from different tables or passages of the source.
Key:
[1] = target: GABAA receptor ([35S]-TBPS binding site, rat brain cortical membranes); assay: Displacement of [35S]-TBPS binding, rat brain cortical membranes; conditions: 5 μM GABA, 2 nM [35S]-TBPS; ± standard error of the means
How it was run: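 Rat cortical P2 membranes (0.5 mg/mL protein) incubated 2 h at room temperature with 2 nM [35S]-TBPS, 5 μM GABA and steroid (1 nM–10 μM) in 200 mM NaCl/50 mM potassium phosphate, pH 7.4. Filter-bound radioactivity counted; IC50 from Hill equation fit, triplicate points.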

Xenopus laevis tadpoles = assay: Tadpole loss of righting (LRR) and swimming (LSR) reflexes; format: in vivo; conditions: 3 h equilibration at room temperature; for EC50: read-out: LSR EC50 (loss of swimming response)
How it was run: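 Groups of 10 early prelimb-bud Xenopus laevis tadpoles were held for 3 h at room temperature in oxygenated Ringer's containing compound (DMSO ≤0.1%). Loss of righting was scored as failure to right within 5 sec after flipping, and loss of swimming as failure to swim when touched. EC50 came from a Hill equation fit.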

[2] = target: T1, rat α1β2γ2 GABAA Receptor (Rattus norvegicus, UniProt P18508+P62813+P63138, INS375LLRMFSFK); assay: Xenopus oocyte two-electrode voltage-clamp electrophysiology; format: cell-based; conditions: for Oocyte electrophysiology, ratio of currents in presence/absence of compound, 0.1 μM: 0.1 μM compound co-applied with 2 μM GABA; for Oocyte electrophysiology, ratio of currents in presence/absence of compound, 0.1 μM / Oocyte electrophysiology, ratio of currents in presence/absence of compound, 1 μM / Oocyte electrophysiology, ratio of currents in presence/absence of compound, 10 μM: −70 mV; for Oocyte electrophysiology, ratio of currents in presence/absence of compound, 1 μM: 1 μM compound co-applied with 2 μM GABA; for Oocyte electrophysiology, ratio of currents in presence/absence of compound, 10 μM: 10 μM compound co-applied with 2 μM GABA; for Gating (10 μM), ratio of compound only current/2 μM GABA current: direct current gated by 10 μM compound in the absence of GABA
T1 construct: from linearized pBluescript vectors containing receptor coding regions; expressed in transfected cells; host or cells: Xenopus laevis oocytes injected with in vitro transcribed capped mRNA
How it was run: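 Oocytes injected with rat α1, β2, γ2L mRNA, voltage-clamped at −70 mV 2-5 days later in ND96. Compounds co-applied with 2 μM GABA for 20 s; peak current ratio with/without compound, n≥4 oocytes. (G): current from 10 μM compound alone, as ratio to 2 μM GABA current.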

T1 sequence (P62813 28-455, stated change not applied): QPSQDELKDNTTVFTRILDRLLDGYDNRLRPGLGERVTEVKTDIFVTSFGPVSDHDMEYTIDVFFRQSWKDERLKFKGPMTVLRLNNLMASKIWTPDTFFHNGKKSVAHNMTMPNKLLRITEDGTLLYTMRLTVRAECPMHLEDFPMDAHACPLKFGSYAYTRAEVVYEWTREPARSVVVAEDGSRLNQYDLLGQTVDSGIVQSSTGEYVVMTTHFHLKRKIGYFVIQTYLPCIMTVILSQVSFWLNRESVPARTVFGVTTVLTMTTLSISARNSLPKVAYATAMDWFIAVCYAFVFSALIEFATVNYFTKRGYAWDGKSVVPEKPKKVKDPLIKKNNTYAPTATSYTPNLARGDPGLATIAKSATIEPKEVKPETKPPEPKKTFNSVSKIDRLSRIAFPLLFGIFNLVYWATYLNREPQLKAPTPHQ
T1 sequence (P63138 26-474, stated change not applied): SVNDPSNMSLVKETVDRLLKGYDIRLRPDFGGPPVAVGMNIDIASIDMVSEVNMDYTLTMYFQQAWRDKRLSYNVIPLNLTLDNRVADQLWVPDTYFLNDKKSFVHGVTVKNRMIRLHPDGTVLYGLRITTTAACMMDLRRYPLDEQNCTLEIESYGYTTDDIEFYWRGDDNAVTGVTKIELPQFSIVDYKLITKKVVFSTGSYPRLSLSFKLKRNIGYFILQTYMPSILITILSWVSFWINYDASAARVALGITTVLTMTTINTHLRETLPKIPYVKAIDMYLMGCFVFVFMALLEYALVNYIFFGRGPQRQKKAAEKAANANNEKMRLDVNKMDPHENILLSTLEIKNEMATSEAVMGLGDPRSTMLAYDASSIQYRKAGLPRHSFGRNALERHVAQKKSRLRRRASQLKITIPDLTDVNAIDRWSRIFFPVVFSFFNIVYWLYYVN
T1 sequence (P18508 with tags, fused parts or gaps INS375LLRMFSFK): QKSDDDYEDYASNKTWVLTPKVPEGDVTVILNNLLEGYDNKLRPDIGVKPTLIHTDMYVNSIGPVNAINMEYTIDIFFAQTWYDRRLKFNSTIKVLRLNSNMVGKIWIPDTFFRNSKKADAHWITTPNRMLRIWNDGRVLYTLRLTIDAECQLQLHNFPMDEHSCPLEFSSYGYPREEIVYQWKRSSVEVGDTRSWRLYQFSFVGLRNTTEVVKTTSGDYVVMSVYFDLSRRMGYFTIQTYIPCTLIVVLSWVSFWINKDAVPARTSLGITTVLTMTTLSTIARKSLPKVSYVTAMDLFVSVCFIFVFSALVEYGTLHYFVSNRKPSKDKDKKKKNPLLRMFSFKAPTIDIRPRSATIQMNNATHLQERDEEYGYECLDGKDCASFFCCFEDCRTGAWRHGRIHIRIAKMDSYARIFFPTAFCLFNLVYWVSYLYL

Structure (SMILES) | IC50 [1] [nM] | LRR ED50 (loss of righting response) (Xenopus laevis tadpoles) | LSR EC50 (loss of swimming response) (Xenopus laevis tadpoles) | Oocyte electrophysiology, ratio of currents in presence/absence of compound, 0.1 μM [2] | Oocyte electrophysiology, ratio of currents in presence/absence of compound, 1 μM [2] | Oocyte electrophysiology, ratio of currents in presence/absence of compound, 10 μM [2] | Gating (10 μM), ratio of compound only current/2 μM GABA current [2] | melting point | EC50 (Xenopus laevis tadpoles) [µM] | EC50 (Xenopus laevis tadpoles; Xenopus laevis, 3 h) [µM]
C[C@]12CC[C@@H](O)C[C@@H]1CCC1C3CC[C@@H]4[C@@]5(CCC[C@]34CCC12)CO5 (stereo partly drawn) [Compound 73, (3α,5α,20S)-20,21-Epoxy-13,24-cyclo-18-norcholan-3-ol] | 1290 | 4.00 ± 1.08 µM | None @ 10 | 0.88 ± 0.05 | 2.54 ± 0.40 | 4.84 ± 1.05 | −0.02 ± 0.04 | 186 to 192 °C (dec.) |  | 
CC12CCC(O)CC1CCC1C2CCC23C(=O)CCCC2CCC13 (stereo not drawn) [Compound 5a, (3α,5α)-3-Hydroxy-13,24-cyclo-18,21-dinorcholan-24-one] | 301 ± 20 | 0.32 ± 0.02 µM |  | 1.22 ± 0.23 | 3.05 ± 0.79 | 10.73 ± 1.87 | 0.39 ± 0.69 | 203 to 204 °C | 1.73 ± 0.03 | 
CC12CCC(O)CC1CCC1C2CCC23CC4OC4C(=O)C2CCC13 [Compound 19b, (3α,5α,22R,23R)-22,23-Epoxy-3-hydroxy-13,24-cyclo-18,21-dinorcholan-20-one] | 313 ± 18 | 0.96 ± 0.29 µM |  | 1.13 ± 0.02 | 2.11 ± 0.26 | 5.47 ± 0.62 | 0.21 ± 0.02 | 194 to 195 °C | 10 | 
C[C@]12CC[C@@H](O)C[C@@H]1CCC1C3CC[C@@H]4[C@@H](C#N)CCC[C@]34CCC12 (stereo partly drawn) [Compound 40, (3α,5α,20S)-3-Hydroxy-13,24-cyclo-18,21-dinorcholane-20-carbonitrile] | 173 ± 12 | >10 µM | None @ 10 | 1.06 ± 0.03 | 1.23 ± 0.02 | 1.27 ± 0.02 | −0.01 ± 0.01 | 250 to 251 °C |  | 
CC12CCC(O)CC1CCC1C2CCC23CCC(=CC#N)C2CCC13 (stereo not drawn) [Compound 96, (3α,5α,20E)-3-Hydroxy-18,21-cyclopregnan-20-ylideneacetonitrile] | 168 ± 32 | 2.77 ± 1.16 µM | None @ 10 | 1.40 ± 0.21 | 2.33 ± 0.30 | 2.90 ± 0.29 | 0.03 ± 0.03 | 201 to 202.5 °C |  | 
C=C1CCC[C@]23CCC4C(CC[C@@H]5C[C@H](O)CC[C@]45C)C2CC[C@H]13 (stereo partly drawn) [Compound 52, (3α,5α)-20-Methylene-13,24-cyclo-18,21-dinorcholan-3-ol] | 213 ± 21 | 4.88 ± 1.12 µM |  | 1.57 ± 0.16 | 3.47 ± 0.50 | 6.22 ± 0.92 | −0.02 ± 0.02 | 131 to 133 °C |  | > 10
CC12CCC(O)CC1CCC1C2CCC23CC(=O)C=CC2CCC13 (stereo not drawn) [Compound 21c, (3α,5α)-3-Hydroxy-13,24-cyclo-18,21-dinorchol-20(22)-en-23-one] | 243 ± 11 | 1.28 ± 0.38 µM |  | 1.59 ± 0.14 | 5.53 ± 0.66 | 16.58 ± 2.45 | 0.35 ± 0.12 | 209 to 210 °C | 10 | 
CC12CCC(O)CC1CCC1C2CCC23CC(=O)C=CC2CCC13 (stereo not drawn) [Compound 22c, (3α,5β)-3-Hydroxy-13,24-cyclo-18,21-dinorchol-20(22)-en-23-one] | 268 ± 43 | 1.05 ± 0.00 µM |  | 1.07 ± 0.10 | 1.83 ± 0.25 | 4.50 ± 0.46 | −0.02 ± 0.01 | 209 to 211 °C | 2.72 ± 0.01 | 
CC12CCC(O)CC1CCC1C2CCC23C(=O)CCCC2CCC13 (stereo not drawn) [Compound 5b, (3α,5β)-3-Hydroxy-13,24-cyclo-18,21-dinorcholan-24-one] | 329 ± 35 | 0.40 ± 0.12 µM |  | 1.26 ± 0.05 | 3.45 ± 0.29 | 10.42 ± 1.65 | 0.04 ± 0.02 | 177 to 178 °C |  | 0.89
C[C@]12CC[C@@H](O)C[C@@H]1CCC1C3CC[C@@H]4C=CC=C[C@]34CCC12 (stereo partly drawn) [Compound 60, (3α,5α)-13,24-Cyclo-18,21-dinorchol-20(22),23-dien-3-ol] | 467 ± 26 | 2.70 ± 0.72 µM |  |  |  | 1.1 ± 0.1 |  | 136 to 138 °C |  | > 10
COC1CCCC23CCC4C(CCC5CC(O)CCC54C)C2CCC13 [Compound 70, (3α,5α,20R)-20-Methoxy-13,24-cyclo-18,21-dinorcholan-3-ol] | 868 ± 78 | >10 µM | None @ 10 | 0.74 ± 0.01 | 0.87 ± 0.02 | 1.02 ± 0.03 | 0.00 ± 0.00 | 200 to 202 °C |  | 
C[C@]12CC[C@@H](O)C[C@@H]1CCC1C3CC[C@@H]4CC[C@@H](C#N)C[C@]34CCC12 (stereo partly drawn) [Compound 49, (3α,5α,20R)-3-Hydroxy-13,24-cyclo-18,21-dinorcholane-23-carbonitrile] | 574 ± 26 | 0.35 ± 0.09 µM |  |  |  | 1.3 ± 0.1 |  | 182 to 183 °C |  | > 10
CC(=O)C1CCCC23CCC4C(CCC5CC(O)CCC54C)C2CCC13 [Compound 80, (3α,5α,20R)-1-[3-Hydroxy-13,24-cyclo-18,21-dinorcholan-20-yl]ethanone] | 2060 | None @ 10 | None @ 10 | 0.85 ± 0.02 | 0.77 ± 0.03 | 0.93 ± 0.07 | 0.01 ± 0.01 | 228 to 229 °C |  | 
C[C@]12CC[C@@H](O)C[C@@H]1CCC1C3CC[C@@H]4C[C@H](C#N)CC[C@]34CCC12 (stereo partly drawn) [Compound 45, (3α,5α,22R)-3-Hydroxy-13,24-cyclo-18,21-dinorcholane-22-carbonitrile] | 44300 ± 21300 | >10 µM | None @ 10 | 0.90 ± 0.02 | 0.82 ± 0.02 | 0.87 ± 0.01 | −0.01 ± 0 | 244 to 246 °C |  | 
C[C@]12CC[C@@H](O)C[C@@H]1CCC1C3CC[C@@H]4CCC=C[C@]34CCC12 (stereo partly drawn) [Compound 61, (3α,5α)-13,24-Cyclo-18,21-dinorchol-23-en-3-ol] | 2000 ± 190 | None @ 10 | None @ 10 | 1.28 ± 0.08 | 1.47 ± 0.10 | 1.72 ± 0.26 | 0.19 ± 0.10 | 166.5 to 169 °C |  | 
